3 molecules from ChEMBL document CHEMBL3407372, “Photodynamic effects induced by meso-tris(pentafluorophenyl)corrole and its cyclodextrin conjugates on cytoskeletal components of HeLa cells” (Eur J Med Chem, 2015) can be followed below.

Series [1] deals with HeLa. The experiment in a line: Cytotoxicity against human HeLa cells assessed as survival fraction at 1x10'-7 M incubated 24 hrs in dark by MTT assay. Conditions: read-out: Survival. In kind it is functional.
Series [2] deals with HeLa. The experiment in a line: Cytotoxicity against human HeLa cells assessed as survival fraction at 1x10'-5 M incubated 24 hrs in dark by MTT assay. The series is classed as functional. Conditions: read-out: Survival.
Series [3] relates to HeLa. Description: Phototoxicity against human HeLa cells assessed as survival fraction at 1x10'-7 M incubated 24 hrs under 3 J/cm'2 red light with irradiance of 5 mW/cm'2 by MTT assay. In kind it is functional. Particulars: light or radiation study, read-out: Survival. (Tetrazolium dyes change colour on reduction, which living cells bring about.)
Series [4] concerns HeLa. The experiment in a line: Phototoxicity against human HeLa cells assessed as survival fraction at 1x10'-7 M incubated 24 hrs under 6 J/cm'2 red light with irradiance of 5 mW/cm'2 by MTT assay. In kind it is functional. Particulars: light or radiation study, read-out: Survival.
For series [5], the system named is HeLa. Description: Phototoxicity against human HeLa cells assessed as survival fraction at 1x10'-7 M incubated 24 hrs under 9 J/cm'2 red light with irradiance of 5 mW/cm'2 by MTT assay. The series is classed as functional. Conditions: light or radiation study, read-out: Survival.
Series [6] has as its system HeLa. The experiment in a line: Phototoxicity against human HeLa cells assessed as survival fraction at 1x10'-5 M incubated 24 hrs under 3 J/cm'2 red light with irradiance of 5 mW/cm'2 by MTT assay. In kind it is functional. Conditions: light or radiation study, read-out: Survival.
The test system of series [7] is HeLa. Description: Phototoxicity against human HeLa cells assessed as survival fraction at 1x10'-5 M incubated 24 hrs under 6 J/cm'2 red light with irradiance of 5 mW/cm'2 by MTT assay. The series is classed as functional. Conditions: light or radiation study, read-out: Survival.
Series [8] concerns HeLa. The experiment in a line: Phototoxicity against human HeLa cells assessed as survival fraction at 1x10'-5 M incubated 24 hrs under 9 J/cm'2 red light with irradiance of 5 mW/cm'2 by MTT assay. In kind it is functional. Conditions: light or radiation study, read-out: Survival.
The test system of series [9] is HeLa. The experiment in a line: Phototoxicity against human HeLa cells assessed as survival fraction at 1x10'-5 M incubated 24 hrs under 12 J/cm'2 red light with irradiance of 5 mW/cm'2 by MTT assay. Particulars: light or radiation study, read-out: Survival. The series is classed as functional.
The test system of series [10] is HeLa. The experiment in a line: Phototoxicity against human HeLa cells assessed as lethality rate at 1x10'-5 M incubated 24 hrs under 3 J/cm'2 red light with irradiance of 5 mW/cm'2 by MTT assay. The series is classed as functional. Conditions: light or radiation study.
The test system of series [11] is HeLa. Description: Phototoxicity against human HeLa cells assessed as lethality rate at 1x10'-5 M incubated 24 hrs under 6 J/cm'2 red light with irradiance of 5 mW/cm'2 by MTT assay. The series is classed as functional.
The test system of series [12] is HeLa. The experiment in a line: Drug uptake in human HeLa cells assessed as nucleus at 1x10'-5 M incubated 24 hrs by red emission under fluorescence microscopy. The series is classed as ADME, cell-based. Conditions: 10 µM.
Series [13] has as its system HeLa. The experiment in a line: Drug uptake in human HeLa cells assessed as golgi apparatus at 1x10'-5 M incubated 24 hrs by mitotracker green. The series is classed as ADME, cell-based. Particulars: 10 µM.
Series [14] has as its system HeLa. Description: Phototoxicity against human HeLa cells assessed as changes in microtubular organization at LD20 concentration incubated 24 hrs under 12 J/cm'2 red light with irradiance of 5 mW/cm'2 by immunofluorescence staining. In kind it is functional, cell-based.
Series [15] has as its system HeLa. The experiment in a line: Phototoxicity against human HeLa cells assessed as abnormalities in chromosome disposition in metaphase plate at LD20 concentration incubated 24 hrs under 12 J/cm'2 red light with irradiance of 5 mW/cm'2 by immunofluorescence staining. The series is classed as functional, cell-based.
Series [16] concerns HeLa. The experiment in a line: Cytotoxicity against human HeLa cells assessed as survival fraction at 1x10'-4 M incubated 24 hrs in dark by MTT assay. Particulars: read-out: Survival. In kind it is functional.
In series [17] the test system is HeLa. Description: Phototoxicity against human HeLa cells assessed as lethality rate at 1x10'-5 M incubated 24 hrs under 9 J/cm'2 red light with irradiance of 5 mW/cm'2 by MTT assay. The series is classed as functional.
For series [18], the system named is HeLa. Description: Drug uptake in human HeLa cells assessed as located in granules at 1x10'-5 M incubated 24 hrs by red emission under fluorescence microscopy. Conditions: 10 µM. In kind it is ADME, cell-based.
Series [19] concerns HeLa. The experiment in a line: Drug uptake in human HeLa cells assessed as located in cytoplasm at 1x10'-5 M incubated 24 hrs by red emission under fluorescence microscopy. The series is classed as ADME, cell-based. Particulars: 10 µM.
Series [20] deals with HeLa. The experiment in a line: Drug uptake in human HeLa cells assessed as lysosomes at 1x10'-5 M incubated 24 hrs by acridine orange staining. The series is classed as ADME, cell-based. Conditions: 10 µM.
The subject of series [21] is HeLa. The experiment in a line: Drug uptake in human HeLa cells assessed as filamentous pattern of mitochondria at 1x10'-5 M incubated 24 hrs by mitotracker green. In kind it is ADME, cell-based. Conditions: 10 µM.
The subject of series [22] is HeLa. The experiment in a line: Drug uptake in human HeLa cells assessed as juxtanuclear portion at 1x10'-5 M incubated 24 hrs by ceramide. Particulars: 10 µM. The series is classed as ADME, cell-based.
Series [23] relates to HeLa. The experiment in a line: Phototoxicity against human HeLa cells assessed as changes in microtubular organization at LD70 concentration incubated 24 hrs under 12 J/cm'2 red light with irradiance of 5 mW/cm'2 by immunofluorescence staining. In kind it is functional, cell-based.
The subject of series [24] is HeLa. The experiment in a line: Phototoxicity against human HeLa cells assessed as abnormalities in chromosome disposition in metaphase plate at LD70 concentration incubated 24 hrs under 12 J/cm'2 red light with irradiance of 5 mW/cm'2 by immunofluorescence staining. In kind it is functional, cell-based.
Series [25] relates to HeLa. Description: Phototoxicity against human HeLa cells assessed as survival fraction at 1x10'-4 M incubated 24 hrs under 6 J/cm'2 red light with irradiance of 5 mW/cm'2 by MTT assay. The series is classed as functional. Conditions: light or radiation study, read-out: Survival.
The subject of series [26] is HeLa. Description: Phototoxicity against human HeLa cells assessed as survival fraction at 1x10'-4 M incubated 24 hrs under 9 J/cm'2 red light with irradiance of 5 mW/cm'2 by MTT assay. Particulars: light or radiation study, read-out: Survival. The series is classed as functional.
The test system of series [27] is HeLa. The experiment in a line: Phototoxicity against human HeLa cells assessed as survival fraction at 1x10'-4 M incubated 24 hrs under 12 J/cm'2 red light with irradiance of 5 mW/cm'2 by MTT assay. The series is classed as functional. Particulars: light or radiation study, read-out: Survival.

Each structure is given as a SMILES string. Calls of active or inactive are those of the source. No cut-off for these calls is given here.

A word on the inhibition: it is how much of the control response was suppressed. Turning to `OC[C@H]1O[C@@H]2O[C@H]3O[C@H](COc4c(F)c(F)c(-c5c6ccc([nH]6)c(-c6c(F)c(F)c(F)c(F)c6F)c6nc(c(-c7c(F)c(F)c(F)c(F)c7F)c7ccc([nH]7)c7ccc5[nH]7)C=C6)c(F)c4F)[C@@H](O[C@H]4[C@H](O)[C@@H](O)[C@@H](O[C@H]5[C@H](O)[C@@H](O)[C@@H](O[C@H]6[C@H](O)[C@@H](O)[C@@H](O[C@H]7[C@@H](O)[C@@H](O)[C@@H](O[C@H]8[C@H](O)[C@@H](O)[C@@H](O[C@H]1[C@H](O)[C@H]2O)O[C@@H]8CO)O[C@@H]7CO)O[C@@H]6CO)O[C@@H]5CO)O[C@@H]4CO)[C@H](O)[C@H]3O`, the viability at 0.1 µM in the series on HeLa [1] was found to be 113%; in the series on HeLa [3] it was 92%; in the series on HeLa [4], 80.2%; in the series on HeLa [5], 90.1%. The viability at 10 µM in the series with HeLa [2] was 162%; with HeLa [6] it was 93.6%; in the series with HeLa [7] it was 95.6%; with HeLa [8], 81.6%; in the series on HeLa [9], 81.6%. Besides, the inhibition at 10 µM in the series with HeLa [10] was 20%. Also, the Activity in the series with HeLa [11] was found to be 22%. For the same molecule, the Drug uptake entry with HeLa [12] and in the series with HeLa [13] was “Active” throughout. Further, the outcome in the series on HeLa [14] and in the series with HeLa [15] was Active.

With `Fc1c(F)c(F)c(-c2c3nc(c(-c4c(F)c(F)c(F)c(F)c4F)c4ccc([nH]4)c4ccc([nH]4)c(-c4c(F)c(F)c(F)c(F)c4F)c4ccc2[nH]4)C=C3)c(F)c1F`, the viability at 10 µM in the series with HeLa [2] came to 108%; with HeLa [6], 104%; in the series on HeLa [7] it was 80.9%; in the series with HeLa [8], 44.5%; in the series with HeLa [9], 38.5%. In the series with HeLa [16], the viability at 100 µM stood at 117%. The Activity in the series with HeLa [17] was determined as 70%. Further, the Drug uptake result in the series on HeLa [18], with HeLa [19], in the series on HeLa [20], with HeLa [21] and in the series on HeLa [22] was “Active” in each case. Besides, the outcome with HeLa [23] and in the series with HeLa [24] was Active.

For `OC[C@H]1O[C@@H]2O[C@H]3O[C@H](COc4c(F)c(F)c(-c5c6nc(c(-c7c(F)c(F)c(F)c(F)c7F)c7ccc([nH]7)c(-c7c(F)c(F)c(OC[C@H]8O[C@@H]9O[C@H]%10O[C@H](CO)[C@@H](O[C@H]%11O[C@H](CO)[C@@H](O[C@H]%12O[C@H](CO)[C@@H](O[C@H]%13O[C@H](CO)[C@@H](O[C@H]%14O[C@H](CO)[C@@H](O[C@H]%15O[C@H](CO)[C@@H](O[C@H]8[C@H](O)[C@H]9O)[C@H](O)[C@H]%15O)[C@H](O)[C@H]%14O)[C@H](O)[C@H]%13O)[C@@H](O)[C@H]%12O)[C@H](O)[C@H]%11O)[C@H](O)[C@H]%10O)c(F)c7F)c7ccc([nH]7)c7ccc5[nH]7)C=C6)c(F)c4F)[C@@H](O[C@H]4[C@H](O)[C@@H](O)[C@@H](O[C@H]5[C@H](O)[C@@H](O)[C@@H](O[C@H]6[C@H](O)[C@@H](O)[C@@H](O[C@H]7[C@@H](O)[C@@H](O)[C@@H](O[C@H]8[C@H](O)[C@@H](O)[C@@H](O[C@H]1[C@H](O)[C@H]2O)O[C@@H]8CO)O[C@@H]7CO)O[C@@H]6CO)O[C@@H]5CO)O[C@@H]4CO)[C@H](O)[C@H]3O`, the viability at 10 µM was 121% in the series with HeLa [2], 121% in the series on HeLa [7], 111% in the series with HeLa [8] and 57.6% in the series with HeLa [9]. The viability at 100 µM in the series on HeLa [16] came out at 86%; in the series on HeLa [25], 86%; in the series on HeLa [26], 85%; with HeLa [27], 57.6%.
